Reference: ChEMBL document CHEMBL1201862, “PubChem BioAssay data set” (2004)
Values joined by “and” are separate entries in the source; they are usually repeats but may differ in a detail not shown here. Identical values can stand only once.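 Values below derive from 48-hour exposures of cells grown in 96-well plates, with endpoints linearly interpolated between the two concentrations bracketing the appropriate inhibition level. Here, GI50 denotes the concentration required for 50% inhibition of growth.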 Active and inactive are the calls of the source. Cut-off read from the data, not from the text of the source: active = GI50 up to about 1.1 µM and inactive = higher.

Assays:
Experiment in all cases: inhibition of tumour cell growth, NCI panel, 48 h
[1] = tested on: SK-MEL-2
[2] = tested on: CCRF-CEM
[3] = tested on: NCI-H460
[4] = tested on: HT-29
[5] = tested on: UACC-257
[6] = tested on: SK-MEL-5
[7] = tested on: IGROV-1
[8] = tested on: ACHN
[9] = tested on: UACC-62
[10] = tested on: LOX IMVI
[11] = tested on: SF-268
[12] = tested on: SNB-19
[13] = tested on: K562
[14] = tested on: EKVX
[15] = tested on: U-251
[16] = tested on: HL-60
[17] = tested on: SK-MEL-28
[18] = tested on: SF-539
[19] = tested on: HOP-92

Structure (SMILES)	GI50 [1]	GI50 [2]	GI50 [3]	GI50 [4]	GI50 [5]	GI50 [6]	GI50 [7]	GI50 [8]	GI50 [9]	GI50 [10]	GI50 [11]	GI50 [12]	GI50 [13]	GI50 [14]	GI50 [15]	GI50 [16]	GI50 [17]	GI50 [18]	GI50 [19]
CCN(CC)CC1CCCCCCCCCCC1=O (stereo not given)	> 100 µM (inactive)	> 100 µM (inactive)	> 100 µM (inactive)	> 100 µM (inactive)	> 100 µM (inactive)	> 100 µM (inactive)	> 100 µM (inactive)	> 100 µM (inactive)	> 100 µM (inactive)	> 100 µM (inactive)	> 100 µM (inactive)	> 100 µM (inactive)	> 100 µM (inactive)	> 100 µM (inactive)	> 100 µM (inactive)	> 100 µM (inactive)	> 100 µM (inactive)		
CC(C)OP(=O)(OC(C)C)c1nc(-c2ccccc2)n(-c2ccc([N+](=O)[O-])cc2)n1	50.8 µM (inactive)	> 100 µM (inactive)	> 100 µM (inactive)	> 100 µM (inactive)	> 100 µM (inactive)	> 100 µM (inactive)	> 100 µM (inactive)	> 100 µM (inactive)	> 100 µM (inactive)		> 100 µM (inactive)	> 100 µM (inactive)	85.5 µM (inactive)	> 100 µM (inactive)	> 100 µM (inactive)	> 100 µM (inactive)	> 100 µM (inactive)	> 100 µM (inactive)	> 100 µM (inactive)
CC1=C(C(=O)Nc2ccc(Cl)c(Cl)c2)C(c2ccc([N+](=O)[O-])cc2)C(C(=O)Nc2ccc(Cl)c(Cl)c2)=C(C)N1	2.1 µM (inactive)		2.41 µM (inactive)	2.42 µM (inactive)	2.51 µM (inactive)	1.67 µM (inactive)	3.2 µM (inactive)	3.09 µM (inactive)	1.7 µM (inactive)	2.06 µM (inactive)	3.38 µM (inactive)	4.65 µM (inactive)	1.07 µM (active)	3.13 µM (inactive)	2.49 µM (inactive)	0.361 µM (active)	2.44 µM (inactive)	3.13 µM (inactive)	2.4 µM (inactive)
OC(CBr)C(O)C(O)C(O)CBr (stereo not given)	> 100 µM (inactive) and > 66.2 µM (inactive)	14.3 µM (inactive) and > 21.6 µM (inactive)	8.3 µM (inactive) and 10.7 µM (inactive)	> 100 µM (inactive) and > 56 µM (inactive)	> 69 µM (inactive) and > 64 µM (inactive)			8.09 µM (inactive)		51.6 µM (inactive) and 40.9 µM (inactive)			> 87.9 µM (inactive)	> 75.7 µM (inactive)	> 43.2 µM (inactive) and > 63.8 µM (inactive)	8.73 µM (inactive) and 13.3 µM (inactive)	> 92.7 µM (inactive)	46.7 µM (inactive) and 49.8 µM (inactive)	
COc1ccc(/C(Cl)=C(\C=O)c2ccc(Cl)c(Cl)c2)cc1	3.52 µM (inactive)	2.96 µM (inactive)	5.25 µM (inactive)	4.37 µM (inactive)		13 µM (inactive)	17 µM (inactive)	7.26 µM (inactive)	8.2 µM (inactive)	3.72 µM (inactive)	5.3 µM (inactive)	16.2 µM (inactive)	4.04 µM (inactive)	17.1 µM (inactive)	5.66 µM (inactive)	4.12 µM (inactive)	14.4 µM (inactive)	10.2 µM (inactive)	6.07 µM (inactive)
Cc1cccc(C)c1NC(=O)CCc1nnc2s/c(=C\c3ccc(N(C)C)cc3)c(=O)n12	> 100 µM (inactive)	38.6 µM (inactive)	> 100 µM (inactive)	> 100 µM (inactive)	> 100 µM (inactive)	> 100 µM (inactive)	> 100 µM (inactive)	> 100 µM (inactive)	> 100 µM (inactive)	> 100 µM (inactive)	59.2 µM (inactive)	> 100 µM (inactive)	53.3 µM (inactive)		> 100 µM (inactive)	68.1 µM (inactive)	> 100 µM (inactive)	> 100 µM (inactive)	> 100 µM (inactive)
C/C(=N/NC(=O)CC(=O)N(C(=O)c1ccccc1Cl)c1ccc(C)cc1)c1cc2ccccc2oc1=O		> 100 µM (inactive)	> 100 µM (inactive)	> 100 µM (inactive)	> 100 µM (inactive)	65.3 µM (inactive)	> 100 µM (inactive)	> 100 µM (inactive)	> 100 µM (inactive)	73.1 µM (inactive)	> 100 µM (inactive)	> 100 µM (inactive)	> 100 µM (inactive)	> 100 µM (inactive)	> 100 µM (inactive)	> 100 µM (inactive)	> 100 µM (inactive)	> 100 µM (inactive)	21.5 µM (inactive)
[O-][S+]1c2ccccc2N=C(c2ccc(Cl)cc2)CC1c1cccs1 (stereo not given)		17.3 µM (inactive)	36.8 µM (inactive)	17.3 µM (inactive)	23.2 µM (inactive)	19 µM (inactive)	14.8 µM (inactive)	28.2 µM (inactive)	15.7 µM (inactive)	12.6 µM (inactive)	29.2 µM (inactive)	21.1 µM (inactive)	9.25 µM (inactive)	35.4 µM (inactive)	15.5 µM (inactive)	14.2 µM (inactive)	19.3 µM (inactive)	16.7 µM (inactive)	19.7 µM (inactive)
O=C(Nc1ccc(/N=N/c2ccccc2)cc1)Sc1ccccc1C(=O)O	> 100 µM (inactive)	> 10 µM (inactive)	> 100 µM (inactive)	> 100 µM (inactive)	> 100 µM (inactive)		0.7 µM (active)	> 100 µM (inactive)	> 100 µM (inactive)	> 100 µM (inactive)	> 100 µM (inactive)	> 100 µM (inactive)	> 100 µM (inactive)	> 100 µM (inactive)	> 100 µM (inactive)	1.7 µM (inactive)	> 100 µM (inactive)	> 100 µM (inactive)	
CC(=O)NC1CC2Oc3ccc(C)cc3C(C)(O2)C1O (stereo not given)	> 100 µM (inactive)	> 100 µM (inactive)	> 100 µM (inactive)	> 100 µM (inactive)	> 100 µM (inactive)		> 100 µM (inactive)	> 100 µM (inactive)	> 100 µM (inactive)	> 100 µM (inactive)		> 100 µM (inactive)	> 100 µM (inactive)	> 100 µM (inactive)	> 100 µM (inactive)	> 100 µM (inactive)	> 100 µM (inactive)	> 100 µM (inactive)	
Cc1cccc(C)c1NC(=O)CCC(=O)NNC(=O)c1cc(O)c2ccccc2c1		12.2 µM (inactive)	27.6 µM (inactive)	58.3 µM (inactive)	44.5 µM (inactive)	32.3 µM (inactive)	30.4 µM (inactive)	37.2 µM (inactive)	25.6 µM (inactive)	25.1 µM (inactive)	27.6 µM (inactive)	23.9 µM (inactive)	23 µM (inactive)	42.3 µM (inactive)	48.8 µM (inactive)	27.8 µM (inactive)	44.8 µM (inactive)	27.9 µM (inactive)	> 100 µM (inactive)
CC(=O)O/C=C(/C=C/OC(C)=O)C(C/C=C(\C)C#CC=C(C)C)OC(C)=O (stereo not given)	> 100 µM (inactive)	26.1 µM (inactive)	> 100 µM (inactive)	30.7 µM (inactive)	33.7 µM (inactive)	72.6 µM (inactive)	30.4 µM (inactive)	61.1 µM (inactive)	27.4 µM (inactive)	26.1 µM (inactive)	> 100 µM (inactive)	> 100 µM (inactive)	21 µM (inactive)	93.5 µM (inactive)	38.5 µM (inactive)	8.51 µM (inactive)		22.8 µM (inactive)	36.6 µM (inactive)
O=S(OC12CC3CC(CC(C3)C1)C2)c1cc(Cl)cc(Cl)c1OCc1ccccc1 (stereo not given)	> 100 µM (inactive)	> 100 µM (inactive)	> 100 µM (inactive)	> 100 µM (inactive)	> 100 µM (inactive)			> 100 µM (inactive)	> 100 µM (inactive)	> 100 µM (inactive)	> 100 µM (inactive)	> 100 µM (inactive)	> 100 µM (inactive)	> 100 µM (inactive)	> 100 µM (inactive)	> 100 µM (inactive)	> 100 µM (inactive)	> 100 µM (inactive)	
CCOC(=O)C1Nc2ccc([N+](=O)[O-])cc2[C@H]2OCC[C@@H]12 (stereo not given in full)	> 100 µM (inactive)	> 100 µM (inactive)	> 100 µM (inactive)	> 100 µM (inactive)	> 100 µM (inactive)	> 100 µM (inactive)	> 100 µM (inactive)	> 100 µM (inactive)	> 100 µM (inactive)	> 100 µM (inactive)	> 100 µM (inactive)	> 100 µM (inactive)	> 100 µM (inactive)	> 100 µM (inactive)	> 100 µM (inactive)	> 100 µM (inactive)	> 100 µM (inactive)	> 100 µM (inactive)	
CCOC(=O)c1csc(NC(=O)C(C)N2CCCC2)n1 (stereo not given)	> 100 µM (inactive)	> 100 µM (inactive)	> 100 µM (inactive)	> 100 µM (inactive)	> 100 µM (inactive)	> 100 µM (inactive)	> 100 µM (inactive)	> 100 µM (inactive)	> 100 µM (inactive)	> 100 µM (inactive)		> 100 µM (inactive)	> 100 µM (inactive)		> 100 µM (inactive)		> 100 µM (inactive)	> 100 µM (inactive)	> 100 µM (inactive)
CC1NCCc2c1[nH]c1cc(O)ccc21 (stereo not given)	> 100 µM (inactive)	> 100 µM (inactive)	> 100 µM (inactive)	> 100 µM (inactive)	> 100 µM (inactive)	> 100 µM (inactive)	> 100 µM (inactive)	> 100 µM (inactive)	> 100 µM (inactive)	> 100 µM (inactive)	> 100 µM (inactive)	> 100 µM (inactive)	> 100 µM (inactive)	> 100 µM (inactive)		> 100 µM (inactive)	> 100 µM (inactive)	> 100 µM (inactive)	> 100 µM (inactive)
